Experimental data from ChEMBL document CHEMBL4411284, “Discovery of novel quaternary ammonium compounds based on quinuclidine-3-ol as new potential antimicrobial candidates” (Eur J Med Chem, 2019).
Calls of active or inactive are those of the source. No cut-off for these calls is given here.

Columns and labels:
Streptococcus pyogenes [1] = experiment: Bactericidal activity against Streptococcus pyogenes ATCC 19615 preincubated for 24 to 48 hrs followed by replating on MHA plates and measured after 18 hrs by broth microdilution assay; assay type: functional
Staphylococcus aureus [2] = experiment: Antimicrobial activity against Staphylococcus aureus ATCC 29213 assessed as bacterial membrane disruption by measuring dead cells at MIC after 15 mins by thiazole orange/propidium iodide staining based flow cytometric analysis (reference value: 3.22%); assay type: functional
Candida albicans = experiment: Antifungal activity against Candida albicans ATCC 90029 after 24 to 48 hrs by broth microdilution assay; assay type: functional
Listeria monocytogenes [3] = experiment: Antimicrobial activity against Listeria monocytogenes ATCC 19111 (1/2a) after 24 to 48 hrs by broth microdilution assay; assay type: functional
Acinetobacter baumannii [4] = experiment: Bactericidal activity against Acinetobacter baumannii ATCC 19606 preincubated for 24 to 48 hrs followed by replating on MHA plates and measured after 18 hrs by broth microdilution assay; assay type: functional; settings: ATCC 19606 = CIP 70.34 = JCM 6841
Staphylococcus aureus [5] = experiment: Growth inhibition in Staphylococcus aureus ATCC 29213 at 1/4 to 1/2 times MIC after 6 hrs; assay type: functional, organism-based
Enterococcus faecalis [6] = experiment: Antimicrobial activity against Enterococcus faecalis ATCC 29212 after 24 to 48 hrs by broth microdilution assay; assay type: functional
Escherichia coli [7] = experiment: Antimicrobial activity against Escherichia coli ATCC 25922 after 24 to 48 hrs by broth microdilution assay; assay type: functional
Acinetobacter baumannii [8] = experiment: Antimicrobial activity against Acinetobacter baumannii clinical isolate after 24 to 48 hrs by broth microdilution assay; assay type: functional
Staphylococcus aureus [9] = experiment: Bactericidal activity against Staphylococcus aureus ATCC 29213 preincubated for 24 to 48 hrs followed by replating on MHA plates and measured after 18 hrs by broth microdilution assay; assay type: functional
Penicillium citrinum = experiment: Antifungal activity against Penicillium citrinum after 24 to 48 hrs by broth microdilution assay; assay type: functional
Pseudomonas aeruginosa [10] = experiment: Bactericidal activity against Pseudomonas aeruginosa ATCC 27853 preincubated for 24 to 48 hrs followed by replating on MHA plates and measured after 18 hrs by broth microdilution assay; assay type: functional
Staphylococcus aureus [11] = experiment: Antimicrobial activity against Staphylococcus aureus ATCC 29213 assessed as live cells at MIC by fluorescence microscopic analysis; assay type: functional, organism-based
Enterococcus faecalis [12] = experiment: Bactericidal activity against Enterococcus faecalis ATCC 29212 preincubated for 24 to 48 hrs followed by replating on MHA plates and measured after 18 hrs by broth microdilution assay; assay type: functional
Staphylococcus aureus [13] = experiment: Antimicrobial activity against methicillin-resistant Staphylococcus aureus clinical isolate after 24 to 48 hrs by broth microdilution assay; assay type: functional
Klebsiella pneumoniae [14] = experiment: Antimicrobial activity against Klebsiella pneumoniae ATCC 13883 after 24 to 48 hrs by broth microdilution assay; assay type: functional
Pseudomonas aeruginosa [15] = experiment: Antimicrobial activity against Pseudomonas aeruginosa ATCC 27853 after 24 to 48 hrs by broth microdilution assay; assay type: functional
Acinetobacter baumannii [16] = experiment: Bactericidal activity against Acinetobacter baumannii clinical isolate preincubated for 24 to 48 hrs followed by replating on MHA plates and measured after 18 hrs by broth microdilution assay; assay type: functional
Escherichia coli [17] = experiment: Bactericidal activity against Escherichia coli clinical isolate preincubated for 24 to 48 hrs followed by replating on MHA plates and measured after 18 hrs by broth microdilution assay; assay type: functional
Staphylococcus aureus [18] = experiment: Induction of morphological changes in Staphylococcus aureus ATCC 29213 assessed as cell wall damage at MIC after 1 hr by atomic force microscopic analysis; assay type: functional, organism-based
Streptococcus pyogenes [19] = experiment: Antimicrobial activity against Streptococcus pyogenes ATCC 19615 after 24 to 48 hrs by broth microdilution assay; assay type: functional
Staphylococcus aureus [20] = experiment: Bactericidal activity against methicillin-resistant Staphylococcus aureus clinical isolate preincubated for 24 to 48 hrs followed by replating on MHA plates and measured after 18 hrs by broth microdilution assay; assay type: functional
Klebsiella pneumoniae [21] = experiment: Bactericidal activity against Klebsiella pneumoniae clinical isolate preincubated for 24 to 48 hrs followed by replating on MHA plates and measured after 18 hrs by broth microdilution assay; assay type: functional
Aspergillus niger = experiment: Antifungal activity against Aspergillus niger after 24 to 48 hrs by broth microdilution assay; assay type: functional
Salmonella typhimurium [22] = experiment: Antimicrobial activity against Salmonella typhimurium WDCM 00031 after 24 to 48 hrs by broth microdilution assay; assay type: functional, Salmonella enterica subsp. enterica serovar Typhimurium; settings: Salmonella enterica
Escherichia coli [23] = experiment: Bactericidal activity against Escherichia coli ATCC 25922 preincubated for 24 to 48 hrs followed by replating on MHA plates and measured after 18 hrs by broth microdilution assay; assay type: functional
Salmonella typhimurium [24] = experiment: Bactericidal activity against Salmonella typhimurium WDCM 00031 preincubated for 24 to 48 hrs followed by replating on MHA plates and measured after 18 hrs by broth microdilution assay; assay type: functional, Salmonella enterica subsp. enterica serovar Typhimurium; settings: Salmonella enterica
Staphylococcus aureus [25] = experiment: Antibiofilm activity against Staphylococcus aureus ATCC 29213 at 1/32 to 1/2 times MIC after 3 days by crystal violet staining based assay relative to control; assay type: functional
Staphylococcus aureus [26] = experiment: Antimicrobial activity against Staphylococcus aureus ATCC 29213 assessed as dead cells at 4 times MIC by fluorescence microscopic analysis; assay type: functional, organism-based
Escherichia coli [27] = experiment: Antimicrobial activity against Escherichia coli clinical isolate after 24 to 48 hrs by broth microdilution assay; assay type: functional
Acinetobacter baumannii [28] = experiment: Antimicrobial activity against Acinetobacter baumannii ATCC 19606 after 24 to 48 hrs by broth microdilution assay; assay type: functional; settings: ATCC 19606 = CIP 70.34 = JCM 6841
Staphylococcus aureus [29] = experiment: Antimicrobial activity against Staphylococcus aureus ATCC 29213 assessed as bacterial membrane disruption by measuring dead cells at 4 times MIC after 15 mins by thiazole orange/propidium iodide staining based flow cytometric analysis (reference value: 3.22%); assay type: functional
Staphylococcus aureus [30] = experiment: Antimicrobial activity against Staphylococcus aureus ATCC 29213 after 24 to 48 hrs by broth microdilution assay; assay type: functional
Staphylococcus aureus [31] = experiment: Induction of membrane lysis in Staphylococcus aureus ATCC 29213 at 4 to 8 times MIC by spectroflurometric analysis based propidium iodide uptake assay; assay type: functional, organism-based
Staphylococcus aureus [32] = experiment: Induction of membrane lysis in Staphylococcus aureus ATCC 29213 at 0.5 to 1 times MIC by spectroflurometric analysis based propidium iodide uptake assay; assay type: functional, organism-based
Staphylococcus aureus [33] = experiment: Antimicrobial activity against Staphylococcus aureus ATCC 29213 assessed as bacterial membrane disruption by measuring live cells at 4 times MIC after 15 mins by thiazole orange/propidium iodide staining based flow cytometric analysis (reference value: 88.47%); assay type: functional
Listeria monocytogenes [34] = experiment: Bactericidal activity against Listeria monocytogenes ATCC 19111 (1/2a) preincubated for 24 to 48 hrs followed by replating on MHA plates and measured after 18 hrs by broth microdilution assay; assay type: functional
Staphylococcus aureus [35] = experiment: Induction of morphological changes in Staphylococcus aureus ATCC 29213 assessed as cell wall damage at MIC after 3 hrs by atomic force microscopic analysis; assay type: functional, organism-based
Staphylococcus aureus [36] = experiment: Antimicrobial activity against Staphylococcus aureus ATCC 29213 assessed as bacterial membrane disruption by measuring live cells at MIC after 15 mins by thiazole orange/propidium iodide staining based flow cytometric analysis (reference value: 88.47%); assay type: functional
Staphylococcus aureus [37] = experiment: Induction of morphological changes in Staphylococcus aureus ATCC 29213 assessed as cell wall damage at 8 times MIC after 1 hr by atomic force microscopic analysis; assay type: functional, organism-based
Klebsiella pneumoniae [38] = experiment: Bactericidal activity against Klebsiella pneumoniae ATCC 13883 preincubated for 24 to 48 hrs followed by replating on MHA plates and measured after 18 hrs by broth microdilution assay; assay type: functional
Klebsiella pneumoniae [39] = experiment: Antimicrobial activity against Klebsiella pneumoniae clinical isolate after 24 to 48 hrs by broth microdilution assay; assay type: functional
Staphylococcus aureus [40] = experiment: Antibiofilm activity against Staphylococcus aureus ATCC 29213 after 3 days by crystal violet staining based assay; assay type: functional, organism-based
HEK293 = experiment: Cytotoxicity against HEK293 cells assessed as reduction in cell viability after 48 hrs by MTS assay; assay type: cell-based; settings: Homo sapiens, HEK293, 48 h
TERT-RPE1 = experiment: Cytotoxicity against human RPE1 cells assessed as reduction in cell viability after 48 hrs by MTS assay; assay type: cell-based; settings: RPE-1, 48 h

CCCCCCCCCCCCCC[N+]12CCC(CC1)C(O)C2.[Br-] (stereo not given)
MBC (Streptococcus pyogenes [1]): 0.06 µg/mL | Activity (Staphylococcus aureus [2]): 14.54% | MIC50 (Candida albicans): 0.06 µg/mL | MIC90 (Candida albicans): 0.12 µg/mL | MIC (Listeria monocytogenes [3]): 3.9 µg/mL | MBC (Acinetobacter baumannii [4]): 15.6 µg/mL | growth inhibition (GI) (Staphylococcus aureus [5]): Active | MIC (Enterococcus faecalis [6]): 0.97 µg/mL | MIC (Escherichia coli [7]): 3.9 µg/mL | MIC (Acinetobacter baumannii [8]): 7.8 µg/mL | MBC (Staphylococcus aureus [9]): 0.97 µg/mL | MIC50 (Penicillium citrinum): 1.95 µg/mL | MIC90 (Penicillium citrinum): 3.9 µg/mL | MBC (Pseudomonas aeruginosa [10]): 31.2 µg/mL | Activity (Staphylococcus aureus [11]): Active | MBC (Enterococcus faecalis [12]): 0.97 µg/mL | MIC (Staphylococcus aureus [13]): 3.9 µg/mL | MIC (Klebsiella pneumoniae [14]): 15.6 µg/mL | MIC (Pseudomonas aeruginosa [15]): 31.2 µg/mL | MBC (Acinetobacter baumannii [16]): 15.6 µg/mL | MBC (Escherichia coli [17]): 15.6 µg/mL | Activity (Staphylococcus aureus [18]): inactive | MIC (Streptococcus pyogenes [19]): 0.06 µg/mL | MBC (Staphylococcus aureus [20]): 3.9 µg/mL | MBC (Klebsiella pneumoniae [21]): 15.6 µg/mL | MIC50 (Aspergillus niger): 0.48 µg/mL | MIC90 (Aspergillus niger): 0.97 µg/mL | MIC (Salmonella typhimurium [22]): 31.2 µg/mL | MBC (Escherichia coli [23]): 7.8 µg/mL | MBC (Salmonella typhimurium [24]): 31.2 µg/mL | Activity (Staphylococcus aureus [25]): 2.3 - 84% | Activity (Staphylococcus aureus [26]): Active | MIC (Escherichia coli [27]): 15.6 µg/mL | MIC (Acinetobacter baumannii [28]): 15.6 µg/mL | Activity (Staphylococcus aureus [29]): 55.69% | MIC (Staphylococcus aureus [30]): 0.97 µg/mL | Activity (Staphylococcus aureus [31]): Active | Activity (Staphylococcus aureus [32]): inactive | Activity (Staphylococcus aureus [33]): 23.66% | MBC (Listeria monocytogenes [34]): 3.9 µg/mL | Activity (Staphylococcus aureus [35]): Active | Activity (Staphylococcus aureus [36]): 66.27% | Activity (Staphylococcus aureus [37]): Active | MBC (Klebsiella pneumoniae [38]): 15.6 µg/mL | MIC (Klebsiella pneumoniae [39]): 15.6 µg/mL | Activity (Staphylococcus aureus [40]): Dose-dependent effect | IC50 (HEK293): 1 µg/mL | IC50 (TERT-RPE1): 15 µg/mL

CCCCCCCCCC[N+]12CCC(CC1)C(O)C2.[Br-] (stereo not given)
MBC (Streptococcus pyogenes [1]): 15.6 µg/mL | MIC50 (Candida albicans): 31.2 µg/mL | MIC90 (Candida albicans): 62.5 µg/mL | MIC (Listeria monocytogenes [3]): 250 µg/mL | MBC (Acinetobacter baumannii [4]): 1000 µg/mL | MIC (Enterococcus faecalis [6]): 250 µg/mL | MIC (Escherichia coli [7]): 250 µg/mL | MIC (Acinetobacter baumannii [8]): 500 µg/mL | MBC (Staphylococcus aureus [9]): 125 µg/mL | MIC50 (Penicillium citrinum): 250 µg/mL | MIC90 (Penicillium citrinum): 500 µg/mL | MBC (Pseudomonas aeruginosa [10]): 2000 µg/mL | MBC (Enterococcus faecalis [12]): 250 µg/mL | MIC (Staphylococcus aureus [13]): 500 µg/mL | MIC (Klebsiella pneumoniae [14]): 1000 µg/mL | MIC (Pseudomonas aeruginosa [15]): 2000 µg/mL | MBC (Acinetobacter baumannii [16]): 1000 µg/mL | MBC (Escherichia coli [17]): 500 µg/mL | MIC (Streptococcus pyogenes [19]): 15.6 µg/mL | MBC (Staphylococcus aureus [20]): 500 µg/mL | MBC (Klebsiella pneumoniae [21]): 1000 µg/mL | MIC50 (Aspergillus niger): 125 µg/mL | MIC90 (Aspergillus niger): 250 µg/mL | MIC (Salmonella typhimurium [22]): 1000 µg/mL | MBC (Escherichia coli [23]): 250 µg/mL | MBC (Salmonella typhimurium [24]): 1000 µg/mL | MIC (Escherichia coli [27]): 500 µg/mL | MIC (Acinetobacter baumannii [28]): 1000 µg/mL | MIC (Staphylococcus aureus [30]): 125 µg/mL | MBC (Listeria monocytogenes [34]): 250 µg/mL | MBC (Klebsiella pneumoniae [38]): 1000 µg/mL | MIC (Klebsiella pneumoniae [39]): 1000 µg/mL
